Values quoted from earlier work, collected in patent US9255156B2, “Immunogenic synthetic glycoconjugate for the immunotherapy of melanoma” (Azienda Ospedaliero-Universitaria Careggi, priority 2009, dated 2016).

GM3 lactone [GM3 lactone 2]
stability under physiological conditions / hydrolytic stability: unstable under physiological conditions
